# Measurements reported in US12606795B2 (Thankcome Biological Science and Technology (SuZhou) Co., …, priority 2023, dated 2026).
# Experiments:
# [1] = tested on: AOM/DSS-induced colorectal carcinoma mice; assay: AOM/DSS-induced colorectal carcinoma mice; format: in vivo, C57BL/6 mice; settings: for colorectum weight/length (ratio): model group 4.34±0.35, normal 2.81±0.34
# Description: 6-week-old SPF male C57BL/6 mice, purchased from the Chongqing Lepitt Biotechnology Co., Ltd. The mice were raised in a standardized laboratory with room temperature of 25° C.±2° C., relative humidity of 50%±5%, and 12 h of light/12 h of darkness. […] In experiments, mice were given free feeding and water. On the first day of experimental molding, the mice in the model group, the aspirin group, and the AKKP group were injected intraperitoneally with AOM at a dosage of 10 mg/kg, and were fed with 2.5% DSS aqueous solution at weeks 2, 5, and 8. The mice in the normal group and model group were intragastrically administrated with sterile saline; the mice in the aspirin group were intragastrically administrated with an aspirin solution at 67 mg/kg, and the mice in the AKKPL group and the AKKPH group were intragastrically administrated at dosages of 1×10^8 CFU/kg and 1×10^9 CFU/kg, respectively, for 10 consecutive weeks. In the experiments, diet, activity, vigor and hair conditions, and fecal properties of the mice in each group were observed. Each mouse was weighed per week and the body weights were recorded. After the experiments, blood was collected from eyeballs and the mice were sacrificed by removing their vertebrae. The mice were dissected to take out large intestine tissue, spleen tissue, liver tissue, and the kidney tissue for later testing.
# After the mice were dissected, the large intestine tissue, the spleen tissue, the liver tissue, and the kidney tissue were taken out and weighed. An organ Index was calculated using a formula, while the colorectum length of the mouse was measured and the colorectal tumorigenesis number of the mouse was recorded. Organ index=organ weight (mg)/mouse body weight (g).
# After being fixed in a tissue fixative for 24 h, the rectum of the mouse was transferred into 95% ethanol for dehydration, and then the dehydrated rectum was placed in xylene to replace alcohol in the tissue to make the rectum tissue transparent. Then, the treated rectum was embedded with paraffin. The embedded rectum was sectioned by a microtome, and then a tissue section was stained with H&E and fixed, obtaining a pathologic tissue section, with a thickness of 2 to 3 μm, of the rectum of the mouse, and the pathologic tissue section was observed under the upright microscope.
# Whole blood was collected from the eyeballs, and centrifuged at 4000 r/min and 4° C. for 10 min to separate supernatant serum. According to the instruction of the ELISA kit, the levels of IL-1β, IL-6, IFN-γ, iNOS and NF-κB in the serum of the mouse were determined.
# About 50 mg colon tissue was taken and cleaned with saline, and the cleaned colon tissue was placed in a homogenization tube containing 6 zirconia beads, and 500 μL TRIzol™ reagent was added to extract RNA in the tissue. The purity and concentration of RNA were determined using the micro-spectrophotometer. […] Then, after cDNA was generated by reverse transcription, a reaction system containing 1 μL cDNA was prepared. Other reagents include 10 μL qPCR SYBR Green Master Mix, […] sterile distilled water, 1 μL forward primer and 1 μL reverse primer. qRT-PCR amplification reaction conditions: 95° C., 10 s, 60° C., 30 s, 40 cycles; 95° C., 15 s, 60° C., 60 s, 95° C., 15 s. Taking Eef2 as an internal reference gene, the mRNA relative expression of each target gene was calculated according to formula 2^−ΔΔCt.
# Auto-aggregation = format: physicochemical; settings: 37° C., at 20 h
# Description: The absorbance (OD600 nm) was adjusted to 0.5. Then the bacterial suspension was cultured at 37° C., and its absorbance at 600 nm at 4, 8, 12, 16, 20, and 24 h was measured. The auto-aggregation percentage was calculated using the following formula: […]
# [2] = Cell surface hydrophobicity (bacterial adherence to hydrocarbon, xylene); format: physicochemical; settings: at 60 min
# Description: Based on the ability of bacteria to adhere to hydrocarbons, the cell surface hydrophobicity of strain AKK PROBIO was measured. A test of bacterial adherence to hydrocarbon (BATH) was conducted using xylene, and some modifications were made. Specifically, the strains were cultured overnight in a BHI medium at 37° C. Cells were collected by centrifugation (4° C.; 8000 rpm; 10 min), washed twice, and resuspended in a phosphate buffer (PBS, pH 7), and absorbance (OD600 nm) was adjusted to 0.5 to normalize bacteria number. Then, an equal volume of xylene was added and vortexed for 5 min to fully mix a two-phase system. After the incubation at room temperature for 15, 30, and 60 min, an aqueous phase was carefully removed, and its absorbance at 600 nm was measured using a spectrophotometer. The affinity (hydrophobicity) for the hydrocarbons was calculated using the following formula:
# [formula] • where P0 and P1 are absorbance values before and after extraction with the hydrocarbons, respectively.
# [3] = qRT-PCR, aspirin 67 mg/kg or AKKPH 1×10^9 CFU/kg, vs model group, P<0.05
# [4] = qRT-PCR, vs model group, P<0.05
substance,measurement,setting,value
Akkermansia muciniphila [AKK PROBIO],colorectum weight/length (ratio),[1]; AKKPH 1×10^9 CFU/kg intragastric 10 weeks,2.97±0.18
same,colorectum weight/length (ratio),[1]; AKKPL 1×10^8 CFU/kg intragastric 10 weeks,3.18±0.31
same,body weight loss,"[1]; AOM/DSS mice, intragastric 10 weeks, aspirin 67 mg/kg, AKKP 1×10^8 and 1×10^9 CFU/kg",alleviate the body weight loss in the mice to a certain extent
same,content of IL-6 in serum,"[1]; ELISA, vs model group",reduced
same,content of IFN-γ in serum,"[1]; ELISA, vs model group, P<0.05",reduced
same,content of IL-1β in serum,"[1]; ELISA, vs model group, P<0.05",lower than that in the model group
same,content of NF-κB in serum,"[1]; ELISA, vs model group, P<0.05",reduced
same,content of iNOS in serum,"[1]; ELISA, vs model group, P<0.05",reduced
same,pathological morphology of rectum tissue (H&E),"[1]; aspirin, AKKPL and AKKPH groups",no obvious erosion found in the rectal mucosa
same,kidney index / renal tissue,"[1]; between the five groups, P>0.05",no significant difference
same,mRNA relative expression of IκBβ in colon tissue,[1]; [3],significantly reduced
same,mRNA relative expression of p50 in colon tissue,[1]; [3],significantly reduced
same,mRNA relative expression of Bid in colon tissue,[1]; [4],significantly increased
same,mRNA relative expression of Bim in colon tissue,[1]; [4],significantly increased
same,mRNA relative expression of caspase-9 in colon tissue,[1]; [4],significantly increased
same,mRNA relative expression of p52 in colon tissue,[1]; [4],significantly reduced
same,mRNA relative expression of p65 in colon tissue,[1]; [4],significantly reduced
same,colorectal tumorigenesis number,"[1]; vs model group, P<0.05",significantly smaller
same,liver weight (liver index),"[1]; vs model group, P<0.05",reduced
same,spleen weight (spleen index),"[1]; vs model group, P<0.05",reduced
same,colorectum length,"[1]; vs model group, P<0.05, aspirin 67 mg/kg, AKKP 1×10^8 and 1×10^9 CFU/kg, 10 weeks",relatively long
same,auto-aggregation,Auto-aggregation,around 52%
same,hydrophobicity,[2],≥ 30%
